# Data taken from patent publication US12371454B2, “Cyclic peptide compound having Kras inhibitory action” (priority 2019, dated 2025).
# Starred links: 1 amine or outer side, 2 acyl side, 3 side chain; linkers in the order of their positions; H or OH if unused. Positions of bridges follow the written chain, without caps; N, C: chain ends. Non-standard residues stand in square brackets, D forms with d. Residues, ends and D or L forms follow the SMILES beside them. *: point of attachment. hPhe(3-Cl-4-CF3) = N[C@@H](CCc1ccc(C(F)(F)F)c(Cl)c1)C(=O)O; NMeAbu(4,4,4-F3) = CN[C@@H](CC(F)(F)F)C(=O)O; NMePhe(4-Me) = CN[C@@H](Cc1ccc(C)cc1)C(=O)O; NMePhe(4-F) = CN[C@@H](Cc1ccc(F)cc1)C(=O)O; NMedβ3hAla = C[C@H](CC(=O)[*:2])N(C)[*:1]; NMeAla(cPent) = CN[C@@H](CC1CCCC1)C(=O)O; NMeGly(cPent) = CN[C@H](C(=O)O)C1CCCC1; NMe3Pal = CN[C@@H](Cc1cccnc1)C(=O)O; NMeCha = CN[C@@H](CC1CCCCC1)C(=O)O; Pro(4-oxo) = O=C1CN[C@H](C(=O)O)C1; NMeChg = CN[C@H](C(=O)O)C1CCCCC1; NMeF = CN[C@@H](Cc1ccccc1)C(=O)O; NMeI = CC[C@H](C)[C@H](NC)C(=O)O; NMeD = CN[C@@H](CC(=O)O)C(=O)O; dNMeD = CN[C@H](CC(=O)O)C(=O)O; NMeL = CN[C@@H](CC(C)C)C(=O)O; NMeNle = CCCC[C@H](NC)C(=O)O; NMeV = CN[C@H](C(=O)O)C(C)C; d(β3hA) = C[C@@H](N)CC(=O)O; NMeS = CN[C@@H](CO)C(=O)O; Morpholide = C1CN(*)CCO1; NMeA = CN[C@@H](C)C(=O)O; Piperidide = C1CCN(*)CC1; Pyrrolidide = C1CCN(*)C1; dNMeA = CN[C@H](C)C(=O)O; Ac5c = NC1(C(=O)O)CCCC1; Aze = O=C(O)[C@@H]1CCN1; Cyclopropyl = C1CC1*; Sar = CNCC(=O)O; Propyl = CCC*
# Target: T1, Kras and SOS1 (biotin-tagged human Kras loaded with GDP, His-tagged human SOS1) (Homo sapiens, UniProt P01116, G12D)
# T1 construct: made in house; host or cells: E. coli (stated for Kras only)
# Test: Protein-protein interaction inhibition between Kras and SOS1 (KrasGl2D-SOS PPI) using AlphaScreen
# Assay type: binding
# Conditions: AlphaScreen; biotin-tagged human Kras loaded with GDP, His-tagged human SOS1; read-out: KRAS G12D-SOS PPI IC50
# How it was run: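 Donor beads (nickel) hold His-SOS1; acceptor beads (streptavidin) hold biotin-Kras bound to GDP. Signal measured at 520-620 nm following 680 nm excitation.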
# T1 sequence (P01116 1-188 isoform P01116-2 G12D): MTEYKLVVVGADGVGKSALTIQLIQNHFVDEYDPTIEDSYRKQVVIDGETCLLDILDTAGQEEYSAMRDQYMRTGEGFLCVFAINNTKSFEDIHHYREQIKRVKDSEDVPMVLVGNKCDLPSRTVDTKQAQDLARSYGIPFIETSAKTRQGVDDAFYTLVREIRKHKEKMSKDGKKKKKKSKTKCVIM
row,Compound,IC50 [nM]
1,CC(C)C[C@H]1C(=O)N[C@@H](CO)C(=O)N(C)CC(=O)N(C)CC(=O)N(C)[C@@H](CC2CCCCC2)C(=O)N(C)CC(=O)N[C@@H](CCc2ccc(C(F)(F)F)c(Cl)c2)C(=O)N2CCC[C@H]2C(=O)NC2(CCCC2)C(=O)N(C)[C@@H](C2CCCCC2)C(=O)N(C)[C@H](C(=O)N2CCCCC2)CC(=O)N1C [Compound 1799] ([NMeL]S[Sar][Sar][NMeCha][Sar][hPhe(3-Cl-4-CF3)]P[Ac5c][NMeChg][NMeD]-Piperidide; lactam N-11),15
2,CC(C)C[C@H]1C(=O)N[C@@H](C)C(=O)N(C)CC(=O)N(C)CC(=O)N(C)[C@@H](CC2CCCCC2)C(=O)N(C)CC(=O)N[C@@H](CCc2ccc(C(F)(F)F)c(Cl)c2)C(=O)N2CCC[C@H]2C(=O)NC2(CCCC2)C(=O)N(C)[C@@H](C2CCCCC2)C(=O)N(C)[C@H](C(=O)N2CCCCC2)CC(=O)N1C [Compound 1802] ([NMeL]A[Sar][Sar][NMeCha][Sar][hPhe(3-Cl-4-CF3)]P[Ac5c][NMeChg][NMeD]-Piperidide; lactam N-11),21
3,CC[C@H](C)[C@@H]1NC(=O)[C@H](C)N(C)C(=O)C[C@@H](C)N(C)C(=O)[C@H](C2CCCCC2)N(C)C(=O)C2(CCCC2)NC(=O)[C@@H]2CCCN2C(=O)[C@H](CCc2ccc(C(F)(F)F)c(Cl)c2)NC(=O)CN(C)C(=O)[C@H](CC2CCCCC2)N(C)C(=O)CN(C)C(=O)CN(C)C1=O [Compound 1808] (cyclo([Ac5c][NMeChg][NMedβ3hAla][NMeA]I[Sar][Sar][NMeCha][Sar][hPhe(3-Cl-4-CF3)]P)),47
4,CC[C@H](C)[C@@H]1NC(=O)[C@H](CC(C)C)N(C)C(=O)C[C@@H](C)N(C)C(=O)[C@H](C2CCCCC2)N(C)C(=O)C2(CCCC2)NC(=O)[C@@H]2CCCN2C(=O)[C@H](CCc2ccc(C(F)(F)F)c(Cl)c2)NC(=O)CN(C)C(=O)[C@H](CC2CCCCC2)N(C)C(=O)[C@@H]2CCN2C(=O)[C@H](C)N(C)C1=O [Compound 1813] (cyclo([Ac5c][NMeChg][NMedβ3hAla][NMeL]I[NMeA][Aze][NMeCha][Sar][hPhe(3-Cl-4-CF3)]P)),36
5,CC[C@H](C)[C@@H]1NC(=O)[C@H](CC(C)C)N(C)C(=O)C[C@H](C(=O)N2CCCC2)N(C)C(=O)[C@H]([C@@H](C)CC)N(C)C(=O)C2(CCCC2)NC(=O)[C@@H]2CCCN2C(=O)[C@H](CCc2ccc(C(F)(F)F)c(Cl)c2)NC(=O)CN(C)C(=O)[C@H](CC2CCCCC2)N(C)C(=O)CN(C)C(=O)CN(C)C1=O [Compound 1814] ([NMeL]I[Sar][Sar][NMeCha][Sar][hPhe(3-Cl-4-CF3)]P[Ac5c][NMeI][dNMeD]-Pyrrolidide; lactam N-11),170
6,CCCC[C@H]1C(=O)N(C)[C@H](C(=O)N2CCCCC2)CC(=O)N(C)[C@@H](CC(C)C)C(=O)N[C@@H]([C@@H](C)CC)C(=O)N(C)CC(=O)N(C)CC(=O)N(C)[C@@H](CC2CCCCC2)C(=O)N(C)CC(=O)N[C@@H](CCc2ccc(C(F)(F)F)c(Cl)c2)C(=O)N2CCC[C@H]2C(=O)NC2(CCCC2)C(=O)N1C [Compound 1815] ([NMeL]I[Sar][Sar][NMeCha][Sar][hPhe(3-Cl-4-CF3)]P[Ac5c][NMeNle][NMeD]-Piperidide; lactam N-11),2.5
7,CC[C@H](C)[C@@H]1NC(=O)[C@H](CC(C)C)N(C)C(=O)C[C@@H](C(=O)N2CCCC2)N(C)C(=O)[C@H](C2CCCC2)N(C)C(=O)C2(CCCC2)NC(=O)[C@@H]2CCCN2C(=O)[C@H](CCc2ccc(C(F)(F)F)c(Cl)c2)NC(=O)CN(C)C(=O)[C@H](CC2CCCCC2)N(C)C(=O)CN(C)C(=O)CN(C)C1=O [Compound 1818] ([NMeL]I[Sar][Sar][NMeCha][Sar][hPhe(3-Cl-4-CF3)]P[Ac5c][NMeGly(cPent)][NMeD]-Pyrrolidide; lactam N-11),0.4
8,CC[C@H](C)[C@@H]1NC(=O)[C@H](CC(C)C)N(C)C(=O)C[C@@H](C(=O)N2CCCCC2)N(C)C(=O)[C@H](C(C)C)N(C)C(=O)C2(CCCC2)NC(=O)[C@@H]2CC(=O)CN2C(=O)[C@H](CCc2ccc(C(F)(F)F)c(Cl)c2)NC(=O)CN(C)C(=O)[C@H](CC2CCCCC2)N(C)C(=O)[C@@H]2CCN2C(=O)[C@H](C)N(C)C1=O [Compound 1819] ([NMeL]I[NMeA][Aze][NMeCha][Sar][hPhe(3-Cl-4-CF3)][Pro(4-oxo)][Ac5c][NMeV][NMeD]-Piperidide; lactam N-11),3.8
9,CC[C@H](C)[C@@H]1NC(=O)[C@H](C)N(C)C(=O)C[C@@H](C(=O)N2CCCC2)N(C)C(=O)[C@H](C2CCCCC2)N(C)C(=O)C2(CCCC2)NC(=O)[C@H](Cc2cccnc2)N(C)C(=O)[C@H](CCc2ccc(C(F)(F)F)c(Cl)c2)NC(=O)CN(C)C(=O)[C@H](CC2CCCCC2)N(C)C(=O)CN(C)C(=O)CN(C)C1=O [Compound 1834] ([NMeA]I[Sar][Sar][NMeCha][Sar][hPhe(3-Cl-4-CF3)][NMe3Pal][Ac5c][NMeChg][NMeD]-Pyrrolidide; lactam N-11),0.81
10,CC[C@H](C)[C@@H]1NC(=O)[C@H](CC(C)C)N(C)C(=O)C[C@@H](C(=O)N(C)C)N(C)C(=O)[C@H]([C@@H](C)CC)N(C)C(=O)C2(CCCC2)NC(=O)[C@@H]2CCCN2C(=O)[C@H](CCc2ccc(C(F)(F)F)c(Cl)c2)NC(=O)CN(C)C(=O)[C@H](Cc2ccc(C)cc2)N(C)C(=O)CN(C)C(=O)CN(C)C1=O [Compound 1836] ([NMeL]I[Sar][Sar][NMePhe(4-Me)][Sar][hPhe(3-Cl-4-CF3)]P[Ac5c][NMeI][NMeD]-NMe2; lactam N-11),0.47
11,"CC[C@H](C)[C@@H]1NC(=O)[C@H](CC(C)C)N(C)C(=O)C[C@@H](C(=O)N2CCCCC2)N(C)C(=O)[C@H](C2CCCCC2)N(C)C(=O)C2(CCCC2)NC(=O)[C@@H]2CCCN2C(=O)[C@H](CCc2ccc(C(F)(F)F)c(Cl)c2)NC(=O)CN(C)C(=O)[C@H](CC(F)(F)F)N(C)C(=O)CN(C)C(=O)CN(C)C1=O [Compound 1841] ([NMeL]I[Sar][Sar][NMeAbu(4,4,4-F3)][Sar][hPhe(3-Cl-4-CF3)]P[Ac5c][NMeChg][NMeD]-Piperidide; lactam N-11)",4.4
12,CC[C@H](C)[C@@H]1NC(=O)[C@H](C)N(C)C(=O)C[C@@H](C(=O)N2CCCCC2)N(C)C(=O)[C@H](C(C)C)N(C)C(=O)C2(CCCC2)NC(=O)[C@@H]2CCCN2C(=O)[C@H](CCc2ccc(C(F)(F)F)c(Cl)c2)NC(=O)[C@@H](C)N(C)C(=O)[C@H](Cc2ccccc2)N(C)C(=O)CN(C)C(=O)CN(C)C1=O [Compound 1844] ([NMeA]I[Sar][Sar][NMeF][dNMeA][hPhe(3-Cl-4-CF3)]P[Ac5c][NMeV][NMeD]-Piperidide; lactam N-11),17
13,CC[C@H](C)[C@@H]1NC(=O)[C@H](CC(C)C)N(C)C(=O)C[C@@H](C(=O)N2CCOCC2)N(C)C(=O)[C@H](C(C)C)N(C)C(=O)C2(CCCC2)NC(=O)[C@@H]2CCCN2C(=O)[C@H](CCc2ccc(C(F)(F)F)c(Cl)c2)NC(=O)CN(C)C(=O)[C@H](CC2CCCC2)N(C)C(=O)CN(C)C(=O)CN(C)C1=O [Compound 1848] ([NMeL]I[Sar][Sar][NMeAla(cPent)][Sar][hPhe(3-Cl-4-CF3)]P[Ac5c][NMeV][NMeD]-Morpholide; lactam N-11),1.4
14,CC[C@H](C)[C@@H]1NC(=O)[C@H](C)N(C)C(=O)C[C@@H](C(=O)N2CCCCC2)N(C)C(=O)[C@H](C(C)C)N(C)C(=O)C2(CCCC2)NC(=O)[C@@H]2CCCN2C(=O)[C@H](CCc2ccc(C(F)(F)F)c(Cl)c2)NC(=O)[C@@H](C)N(C)C(=O)[C@H](Cc2ccc(F)cc2)N(C)C(=O)[C@@H]2CCCN2C(=O)CN(C)C1=O [Compound 1853] ([NMeA]I[Sar]P[NMePhe(4-F)][dNMeA][hPhe(3-Cl-4-CF3)]P[Ac5c][NMeV][NMeD]-Piperidide; lactam N-11),8.9
15,CCCOC[C@H]1C(=O)N(C)[C@H](C(=O)N2CCCCC2)CC(=O)N(C)[C@@H](CC(C)C)C(=O)N[C@@H]([C@@H](C)CC)C(=O)N(C)[C@@H](C)C(=O)N2CC[C@H]2C(=O)N(C)[C@@H](CC2CCCCC2)C(=O)N(C)CC(=O)N[C@@H](CCc2ccc(C(F)(F)F)c(Cl)c2)C(=O)N2CCC[C@H]2C(=O)NC2(CCCC2)C(=O)N1C [Compound 1855] ([NMeL]I[NMeA][Aze][NMeCha][Sar][hPhe(3-Cl-4-CF3)]P[Ac5c][NMeS](Propyl)[NMeD]-Piperidide; lactam N-11),340
16,CC[C@H](C)[C@@H]1NC(=O)[C@H](CC(C)C)N(C)C(=O)C[C@@H](C)NC(=O)[C@H](C2CCCCC2)N(C)C(=O)C2(CCCC2)NC(=O)[C@@H]2CCCN2C(=O)[C@H](CCc2ccc(C(F)(F)F)c(Cl)c2)NC(=O)CN(C)C(=O)[C@H](Cc2ccc(C)cc2)N(C)C(=O)CN(C)C(=O)CN(C)C1=O [Compound 1856] (cyclo([Ac5c][NMeChg][d(β3hA)][NMeL]I[Sar][Sar][NMePhe(4-Me)][Sar][hPhe(3-Cl-4-CF3)]P)),5.4
17,CC[C@H](C)[C@@H]1NC(=O)[C@H](CC(C)C)N(C)C(=O)C[C@@H](C(=O)N2CCCCC2)N(C)C(=O)[C@H](COC2CC2)N(C)C(=O)C2(CCCC2)NC(=O)[C@@H]2CCCN2C(=O)[C@H](CCc2ccc(C(F)(F)F)c(Cl)c2)NC(=O)CN(C)C(=O)[C@H](CC2CCCCC2)N(C)C(=O)CN(C)C(=O)CN(C)C1=O [Compound 1857] ([NMeL]I[Sar][Sar][NMeCha][Sar][hPhe(3-Cl-4-CF3)]P[Ac5c][NMeS](Cyclopropyl)[NMeD]-Piperidide; lactam N-11),19
18,CC[C@H](C)[C@@H]1NC(=O)[C@H](CC(C)C)N(C)C(=O)C[C@@H](C(=O)N(C)C)N(C)C(=O)[C@H]([C@@H](C)CC)N(C)C(=O)C2(CCCC2)NC(=O)[C@@H]2CCCN2C(=O)[C@H](CCc2ccc(C(F)(F)F)c(Cl)c2)NC(=O)CN(C)C(=O)[C@H](CC2CCCCC2)N(C)C(=O)[C@@H]2CCN2C(=O)[C@H](C)N(C)C1=O [Compound 1858] ([NMeL]I[NMeA][Aze][NMeCha][Sar][hPhe(3-Cl-4-CF3)]P[Ac5c][NMeI][NMeD]-NMe2; lactam N-11),1.1
